# Assay results taken from paper PMC2895771 (Journal of the American Chemical Society, 2010).
# Experiments:
# [1] = target: T1, GST-fused PHD finger of ING2 (GST-ING2PHD) (Homo sapiens, UniProt Q9H160); test: UV photocrosslinking labeling of recombinant GST-ING2PHD by probe 1; type: biochemical; details: UV irradiation 1 h, coupled to rhodamine azide; in words
# T1 sequence (Q9H160 212-261 limits assumed): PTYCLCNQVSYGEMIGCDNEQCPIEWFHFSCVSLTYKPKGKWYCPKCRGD
# PHD finger of BPTF = test: labeling of recombinant BPTF PHD finger by probe 1 and competition by peptides; type: biochemical; details: probe 1 (1 μM), protein 100 ng; in words
# [2] = test system: double tudor domain of JMJD2A; type: biochemical; details: probe 1 (1 μM), protein 100 ng; in words
# endogenous ING2 = test: capture of endogenous ING2 from Hela cell lysates; details: probe 1 (2 μM), UV, biotin-N3, streptavidin, Western blot, in words
# GST-ING2PHD = type: biochemical; details: probe 1 (1 μM); GST-ING2PHD 10 μg/mL, 280 nM; Hela cell lysates 2 mg/mL; in words
substance,measurement,setting,value
probe 1: H3K4me3 peptide probe; benzophenone moiety replaced the side chain of Ala 7; spacer (H3 residues 8–15) and an alkyne (ARTKQT; not fully specified; trimethyl-lysine at 4 (K(me3)); benzophenone moiety in place of the side chain of Ala 7; an alkyne group),labeling of the recombinant protein,[1],successfully labeled the recombinant protein in a dose-dependent manner
same,labeling of recombinant protein,PHD finger of BPTF,robust labeling
same,labeling of recombinant protein,[2],robust labeling
same,capture of endogenous ING2,endogenous ING2,endogenous ING2 was captured by the probe
same,labeling of GST-ING2PHD in cell lysates,GST-ING2PHD,robustly labeled
